Measurements as given in patent US7041851B2, “Fluorinated phenyl thiophenyl derivatives and their use for imaging serotonin transporters” (The Trustees of the University of Pennsylvania, priority 2002, dated 2006).

Legend:
[1] = target: T1, SERT (Rattus norvegicus, UniProt P31652); assay: Pretreatment with monoamine reuptake inhibitors, specific binding of [18F]ACF in rat brain regions; format: in vivo, rats; set-up: Tracer uptake: Cortex / Tracer uptake: Remainder / Tracer uptake: Hypothalamus / Tracer uptake: Whole brain / Tracer uptake: Blood / Tracer uptake: Cerebellum / Tracer uptake: Striatum / Tracer uptake: Hippocampus: unit not given here; conditions: for Ratio to Cerebellum: Cerebellum / Ratio to Cerebellum: Cortex / Ratio to Cerebellum: Hippocampus / Ratio to Cerebellum: Hypothalamus / Ratio to Cerebellum: Remainder / Ratio to Cerebellum: Striatum / Tracer uptake: Blood / Tracer uptake: Cerebellum / Tracer uptake: Cortex / Tracer uptake: Hippocampus / Tracer uptake: Hypothalamus / Tracer uptake: Remainder / Tracer uptake: Striatum / Tracer uptake: Whole brain: 1 h after tracer
T1 construct: from tissue; host or cells: rat brain in vivo (hypothalamus, striatum, hippocampus, cerebellum)

[2] = Organ distribution and brain regional uptake of [18F]ACF in rats
[3] = rats, Control (saline-pretreated)
[4] = rats, pretreated (+)McN5652 2 mg/kg iv 5 min prior
[5] = rats, pretreated Methylphenidate 2 mg/kg iv 5 min prior
[6] = rats, pretreated Nisoxetine 2 mg/kg iv 5 min prior

T1 sequence (P31652 whole entry): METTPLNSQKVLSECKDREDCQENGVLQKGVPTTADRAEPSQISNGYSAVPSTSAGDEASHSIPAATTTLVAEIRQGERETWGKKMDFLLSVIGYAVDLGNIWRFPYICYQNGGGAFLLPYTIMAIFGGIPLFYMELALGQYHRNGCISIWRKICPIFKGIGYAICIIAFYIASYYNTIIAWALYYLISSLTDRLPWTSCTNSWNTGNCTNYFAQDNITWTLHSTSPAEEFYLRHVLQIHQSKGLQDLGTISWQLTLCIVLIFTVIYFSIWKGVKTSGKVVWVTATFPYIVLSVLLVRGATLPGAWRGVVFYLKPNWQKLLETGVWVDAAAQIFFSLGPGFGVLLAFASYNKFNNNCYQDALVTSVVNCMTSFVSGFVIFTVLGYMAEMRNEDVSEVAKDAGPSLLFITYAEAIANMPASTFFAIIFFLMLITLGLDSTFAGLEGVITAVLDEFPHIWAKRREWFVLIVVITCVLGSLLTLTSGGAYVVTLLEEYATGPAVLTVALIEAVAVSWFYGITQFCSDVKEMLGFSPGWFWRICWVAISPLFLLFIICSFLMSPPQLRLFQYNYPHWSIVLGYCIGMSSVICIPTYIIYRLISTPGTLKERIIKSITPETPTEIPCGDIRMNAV

CN(C)Cc1ccccc1Sc1cc([18F])c(Cl)cc1N [[^18F]ACF]
Specific retention in brain regions after pretreatment ([1]; rats pretreated with methylphenidate): No significant differences
Specific retention in brain regions after pretreatment ([1]; rats pretreated with nisoxetine): No significant differences
Specific retention in hypothalamus, striatum and hippocampus after pretreatment ([1]; rats, 60 min, (+)McN5652 2 mg/Kg 5 min prior to tracer injection): significant decrease
Ratio to Cerebellum: Cerebellum [1, 3]: 1.00 ± 0.00
Ratio to Cerebellum: Cortex [1, 3]: 1.86 ± 0.05
Ratio to Cerebellum: Hippocampus [1, 3]: 2.52 ± 0.13
Ratio to Cerebellum: Hypothalamus [1, 3]: 2.96 ± 0.03
Ratio to Cerebellum: Remainder [1, 3]: 2.26 ± 0.03
Ratio to Cerebellum: Striatum [1, 3]: 2.63 ± 0.23
Tracer uptake: Blood [1, 3]: 0.26 ± 0.03
Tracer uptake: Cerebellum [1, 3]: 0.21 ± 0.02
Tracer uptake: Cortex [1, 3]: 0.39 ± 0.03
Tracer uptake: Hippocampus [1, 3]: 0.53 ± 0.03
Tracer uptake: Hypothalamus [1, 3]: 0.63 ± 0.05
Tracer uptake: Remainder [1, 3]: 0.48 ± 0.04
Tracer uptake: Striatum [1, 3]: 0.56 ± 0.09
Tracer uptake: Whole brain [1, 3]: 0.81 ± 0.09
Ratio to Cerebellum: Cerebellum [1, 4]: 1.00 ± 0.00
Ratio to Cerebellum: Cortex [1, 4]: 1.43 ± 0.27
Ratio to Cerebellum: Hippocampus [1, 4]: 1.93 ± 0.21
Ratio to Cerebellum: Hypothalamus [1, 4]: 1.36 ± 0.15
Ratio to Cerebellum: Remainder [1, 4]: 1.37 ± 0.16
Ratio to Cerebellum: Striatum [1, 4]: 1.48 ± 0.32
Tracer uptake: Blood [1, 4]: 0.26 ± 0.03
Tracer uptake: Cerebellum [1, 4]: 0.17 ± 0.03
Tracer uptake: Cortex [1, 4]: 0.24 ± 0.02
Tracer uptake: Hippocampus [1, 4]: 0.34 ± 0.06
Tracer uptake: Hypothalamus [1, 4]: 0.24 ± 0.03
Tracer uptake: Remainder [1, 4]: 0.23 ± 0.01
Tracer uptake: Striatum [1, 4]: 0.25 ± 0.03
Tracer uptake: Whole brain [1, 4]: 0.42 ± 0.02
Ratio to Cerebellum: Cerebellum [1, 5]: 1.00 ± 0.00
Ratio to Cerebellum: Cortex [1, 5]: 2.02 ± 0.21
Ratio to Cerebellum: Hippocampus [1, 5]: 2.50 ± 0.15
Ratio to Cerebellum: Hypothalamus [1, 5]: 3.05 ± 0.14
Ratio to Cerebellum: Remainder [1, 5]: 2.23 ± 0.05
Ratio to Cerebellum: Striatum [1, 5]: 2.75 ± 0.09
Tracer uptake: Blood [1, 5]: 0.28 ± 0.02
Tracer uptake: Cerebellum [1, 5]: 0.17 ± 0.02
Tracer uptake: Cortex [1, 5]: 0.35 ± 0.03
Tracer uptake: Hippocampus [1, 5]: 0.43 ± 0.03
Tracer uptake: Hypothalamus [1, 5]: 0.52 ± 0.07
Tracer uptake: Remainder [1, 5]: 0.38 ± 0.05
Tracer uptake: Striatum [1, 5]: 0.47 ± 0.06
Tracer uptake: Whole brain [1, 5]: 0.67 ± 0.04
Ratio to Cerebellum: Cerebellum [1, 6]: 1.00 ± 0.00
Ratio to Cerebellum: Cortex [1, 6]: 1.94 ± 0.16
Ratio to Cerebellum: Hippocampus [1, 6]: 2.44 ± 0.11
Ratio to Cerebellum: Hypothalamus [1, 6]: 2.89 ± 0.11
Ratio to Cerebellum: Remainder [1, 6]: 2.17 ± 0.04
Ratio to Cerebellum: Striatum [1, 6]: 2.50 ± 0.12
Tracer uptake: Blood [1, 6]: 0.26 ± 0.01
Tracer uptake: Cerebellum [1, 6]: 0.19 ± 0.01
Tracer uptake: Cortex [1, 6]: 0.37 ± 0.04
Tracer uptake: Hippocampus [1, 6]: 0.46 ± 0.02
Tracer uptake: Hypothalamus [1, 6]: 0.55 ± 0.02
Tracer uptake: Remainder [1, 6]: 0.41 ± 0.01
Tracer uptake: Striatum [1, 6]: 0.47 ± 0.03
Tracer uptake: Whole brain [1, 6]: 0.74 ± 0.04
Organ distribution: Blood ([2]; 2 min after iv injection): 6.56 ± 0.64 % dose/organ
Organ distribution: Bone ([2]; 2 min after iv injection): 0.01 ± 0.00 % dose/organ
Organ distribution: Brain ([2]; 2 min after iv injection): 3.27±0.79 % dose/organ
Organ distribution: Heart ([2]; 2 min after iv injection): 1.69 ± 0.24 % dose/organ
Organ distribution: Kidney ([2]; 2 min after iv injection): 6.97 ± 0.73 % dose/organ
Organ distribution: Liver ([2]; 2 min after iv injection): 9.41 ± 1.82 % dose/organ
Organ distribution: Lung ([2]; 2 min after iv injection): 14.89 ± 2.28 % dose/organ
Organ distribution: Muscle ([2]; 2 min after iv injection): 14.34 ± 9.76 % dose/organ
Organ distribution: Skin ([2]; 2 min after iv injection): 4.76 ± 0.89 % dose/organ
Organ distribution: Spleen ([2]; 2 min after iv injection): 0.64 ± 0.20 % dose/organ
Ratio to Cerebellum: Cerebellum ([2]; 2 min after iv injection): 1.00 ± 0.00
Ratio to Cerebellum: Cortex ([2]; 2 min after iv injection): 1.84 ± 0.43
Ratio to Cerebellum: Hippocampus ([2]; 2 min after iv injection): 1.24 ± 0.15
Ratio to Cerebellum: Hypothalamus ([2]; 2 min after iv injection): 1.37 ± 0.19
Ratio to Cerebellum: Remainder ([2]; 2 min after iv injection): 1.32 ± 0.21
Ratio to Cerebellum: Striatum ([2]; 2 min after iv injection): 1.41 ± 0.31
Regional brain distribution: Cerebellum ([2]; 2 min after iv injection): 1.33 ± 0.51 % dose/g
Regional brain distribution: Cortex ([2]; 2 min after iv injection): 2.31 ± 0.46 % dose/g
Regional brain distribution: Hippocampus ([2]; 2 min after iv injection): 1.60 ± 0.46 % dose/g
Regional brain distribution: Hypothalamus ([2]; 2 min after iv injection): 1.76 ± 0.48 % dose/g
Regional brain distribution: Remainder ([2]; 2 min after iv injection): 1.69 ± 0.43 % dose/g
Regional brain distribution: Striatum ([2]; 2 min after iv injection): 1.78 ± 0.36 % dose/g
Organ distribution: Blood ([2]; 30 min after iv injection): 4.52 ± 0.22 % dose/organ
Organ distribution: Bone ([2]; 30 min after iv injection): 0.04 ± 0.03 % dose/organ
Organ distribution: Brain ([2]; 30 min after iv injection): 1.28 ± 0.14 % dose/organ
Organ distribution: Heart ([2]; 30 min after iv injection): 0.18 ± 0.02 % dose/organ
Organ distribution: Kidney ([2]; 30 min after iv injection): 2.64 ± 0.79 % dose/organ
Organ distribution: Liver ([2]; 30 min after iv injection): 15.20 ± 1.20 % dose/organ
